According to ChEMBL document CHEMBL4346705, “(±)-trans-Dihydronarciclasine and (±)-trans-dihydrolycoricidine analogues modified in their ring A: Evaluation of their anticancer activity and a SAR study” (2019):

Key:
Type in all cases: functional
[1] = system: CCRF-CEM; test: Antiproliferative activity against human CCRF-CEM cells assessed as cell viability at 10^-5 M incubated for 48 hrs by sulforhodamine B assay relative to control; conditions: read-out: Activity
[2] = system: K562; test: Antiproliferative activity against human K562 cells assessed as cell viability at 10^-5 M incubated for 48 hrs by sulforhodamine B assay relative to control; conditions: K562, 48 h, read-out: Activity
[3] = system: RPMI-8226; test: Antiproliferative activity against human RPMI8226 cells assessed as cell viability at 10^-5 M incubated for 48 hrs by sulforhodamine B assay relative to control; conditions: RPMI-8226, 48 h, read-out: Activity
[4] = system: SR; test: Antiproliferative activity against human SR cells assessed as cell viability at 10^-5 M incubated for 48 hrs by sulforhodamine B assay relative to control; conditions: read-out: Activity
[5] = system: EKVX; test: Antiproliferative activity against human EKVX cells assessed as cell viability at 10^-5 M incubated for 48 hrs by sulforhodamine B assay relative to control; conditions: read-out: Activity
[6] = system: HOP-62; test: Antiproliferative activity against human HOP62 cells assessed as cell viability at 10^-5 M incubated for 48 hrs by sulforhodamine B assay relative to control; conditions: HOP-62, 48 h, read-out: Activity
[7] = system: NCI-H226; test: Antiproliferative activity against human NCI-H226 cells assessed as cell viability at 10^-5 M incubated for 48 hrs by sulforhodamine B assay relative to control; conditions: NCI-H226, 48 h, read-out: Activity
[8] = system: NCI-H460; test: Antiproliferative activity against human NCI-H460 cells assessed as cell viability at 10^-5 M incubated for 48 hrs by sulforhodamine B assay relative to control; conditions: NCI-H460, 48 h, read-out: Activity
[9] = system: COLO 205; test: Antiproliferative activity against human COLO205 cells assessed as cell viability at 10^-5 M incubated for 48 hrs by sulforhodamine B assay relative to control; conditions: COLO 205, 48 h, read-out: Activity
[10] = system: HCC 2998; test: Antiproliferative activity against human HCC2998 cells assessed as cell viability at 10^-5 M incubated for 48 hrs by sulforhodamine B assay relative to control; conditions: HCC 2998, 48 h, read-out: Activity
[11] = system: HCT-116; test: Antiproliferative activity against human HCT116 cells assessed as cell viability at 10^-5 M incubated for 48 hrs by sulforhodamine B assay relative to control; conditions: HCT-116, 48 h, read-out: Activity
[12] = system: SF-295; test: Antiproliferative activity against human SF295 cells assessed as cell viability at 10^-5 M incubated for 48 hrs by sulforhodamine B assay relative to control; conditions: SF-295, 48 h, read-out: Activity
[13] = system: Malme-3M; test: Antiproliferative activity against human MALME-3M cells assessed as cell viability at 10^-5 M incubated for 48 hrs by sulforhodamine B assay relative to control; conditions: read-out: Activity
[14] = system: SK-MEL-2; test: Antiproliferative activity against human SK-MEL-2 cells assessed as cell viability at 10^-5 M incubated for 48 hrs by sulforhodamine B assay relative to control; conditions: SK-MEL-2, 48 h, read-out: Activity
[15] = system: SK-MEL-28; test: Antiproliferative activity against human SK-MEL-28 cells assessed as cell viability at 10^-5 M incubated for 48 hrs by sulforhodamine B assay relative to control; conditions: SK-MEL-28, 48 h, read-out: Activity
[16] = system: SK-MEL-5; test: Antiproliferative activity against human SK-MEL-5 cells assessed as cell viability at 10^-5 M incubated for 48 hrs by sulforhodamine B assay relative to control; conditions: SK-MEL-5, 48 h, read-out: Activity
[17] = system: UACC-257; test: Antiproliferative activity against human UACC257 cells assessed as cell viability at 10^-5 M incubated for 48 hrs by sulforhodamine B assay relative to control; conditions: UACC-257, 48 h, read-out: Activity
[18] = system: IGROV-1; test: Antiproliferative activity against human IGROV1 cells assessed as cell viability at 10^-5 M incubated for 48 hrs by sulforhodamine B assay relative to control; conditions: IGROV-1, 48 h, read-out: Activity
[19] = system: OVCAR-8; test: Antiproliferative activity against human OVCAR8 cells assessed as cell viability at 10^-5 M incubated for 48 hrs by sulforhodamine B assay relative to control; conditions: OVCAR-8, 48 h, read-out: Activity
[20] = system: NCI/ADR-RES; test: Antiproliferative activity against human NCI-ADR-RES cells assessed as cell viability at 10^-5 M incubated for 48 hrs by sulforhodamine B assay relative to control; conditions: read-out: Activity
[21] = system: 786-0; test: Antiproliferative activity against human 786-0 cells assessed as cell viability at 10^-5 M incubated for 48 hrs by sulforhodamine B assay relative to control; conditions: 786-0, 48 h, read-out: Activity
[22] = system: A498; test: Antiproliferative activity against human A498 cells assessed as cell viability at 10^-5 M incubated for 48 hrs by sulforhodamine B assay relative to control; conditions: A498, 48 h, read-out: Activity
[23] = system: CAKI-1; test: Antiproliferative activity against human Caki1 cells assessed as cell viability at 10^-5 M incubated for 48 hrs by sulforhodamine B assay relative to control; conditions: CAKI-1, 48 h, read-out: Activity
[24] = system: RXF 393; test: Antiproliferative activity against human RXF393 cells assessed as cell viability at 10^-5 M incubated for 48 hrs by sulforhodamine B assay relative to control; conditions: RXF 393, 48 h, read-out: Activity
[25] = system: MDA-MB-231; test: Antiproliferative activity against human MDA-MB-231 cells assessed as cell viability at 10^-5 M incubated for 48 hrs by sulforhodamine B assay relative to control; conditions: MDA-MB-231, 48 h, read-out: Activity
[26] = system: Hs-578T; test: Antiproliferative activity against human Hs 578T cells assessed as cell viability at 10^-5 M incubated for 48 hrs by sulforhodamine B assay relative to control; conditions: read-out: Activity
[27] = system: BT-549; test: Antiproliferative activity against human BT549 cells assessed as cell viability at 10^-5 M incubated for 48 hrs by sulforhodamine B assay relative to control; conditions: BT-549, 48 h, read-out: Activity
[28] = system: MDA-MB-468; test: Antiproliferative activity against human MDA-MB-468 cells assessed as cell viability at 10^-5 M incubated for 48 hrs by sulforhodamine B assay relative to control; conditions: MDA-MB-468, 48 h, read-out: Activity

Compound: CCOc1cc2c(cc1OCC)C1CC(O)C(O)C(O)C1NC2=O (racemic)
- viability at 10 µM [1]: 102%
- viability at 10 µM [2]: 88.4%
- viability at 10 µM [3]: 102%
- viability at 10 µM [4]: 91.2%
- viability at 10 µM [5]: 102%
- viability at 10 µM [6]: 99.2%
- viability at 10 µM [7]: 97.8%
- viability at 10 µM [8]: 111%
- viability at 10 µM [9]: 106%
- viability at 10 µM [10]: 106%
- viability at 10 µM [11]: 96.3%
- viability at 10 µM [12]: 94.9%
- viability at 10 µM [13]: 102%
- viability at 10 µM [14]: 100%
- viability at 10 µM [15]: 110%
- viability at 10 µM [16]: 99.6%
- viability at 10 µM [17]: 97.5%
- viability at 10 µM [18]: 107%
- viability at 10 µM [19]: 97.9%
- viability at 10 µM [20]: 101%
- viability at 10 µM [21]: 98.9%
- viability at 10 µM [22]: 111%
- viability at 10 µM [23]: 87%
- viability at 10 µM [24]: 105%
- viability at 10 µM [25]: 103%
- viability at 10 µM [26]: 99.6%
- viability at 10 µM [27]: 101%
- viability at 10 µM [28]: 94.2%

Compound: COc1cc2c(c(OC)c1OC)C(=O)NC1C2CC(O)C(O)C1O (racemic)
- viability at 10 µM [1]: 104%
- viability at 10 µM [2]: 96.6%
- viability at 10 µM [3]: 102%
- viability at 10 µM [4]: 95.6%
- viability at 10 µM [5]: 103%
- viability at 10 µM [6]: 102%
- viability at 10 µM [7]: 102%
- viability at 10 µM [8]: 110%
- viability at 10 µM [9]: 108%
- viability at 10 µM [10]: 101%
- viability at 10 µM [11]: 98.9%
- viability at 10 µM [12]: 98.3%
- viability at 10 µM [13]: 108%
- viability at 10 µM [14]: 117%
- viability at 10 µM [15]: 111%
- viability at 10 µM [16]: 104%
- viability at 10 µM [17]: 100%
- viability at 10 µM [18]: 111%
- viability at 10 µM [19]: 97.3%
- viability at 10 µM [20]: 108%
- viability at 10 µM [21]: 94.9%
- viability at 10 µM [22]: 112%
- viability at 10 µM [23]: 94.1%
- viability at 10 µM [24]: 102%
- viability at 10 µM [25]: 106%
- viability at 10 µM [26]: 108%
- viability at 10 µM [27]: 110%
- viability at 10 µM [28]: 102%

Compound: CCOc1cc2c(c(OC)c1OCC)C(=O)NC1C2CC(O)C(O)C1O (racemic)
- viability at 10 µM [1]: 96.9%
- viability at 10 µM [2]: 98.3%
- viability at 10 µM [3]: 101%
- viability at 10 µM [4]: 95.8%
- viability at 10 µM [5]: 99.1%
- viability at 10 µM [6]: 104%
- viability at 10 µM [7]: 99.1%
- viability at 10 µM [8]: 102%
- viability at 10 µM [9]: 116%
- viability at 10 µM [10]: 107%
- viability at 10 µM [11]: 95.6%
- viability at 10 µM [12]: 102%
- viability at 10 µM [13]: 111%
- viability at 10 µM [14]: 110%
- viability at 10 µM [15]: 105%
- viability at 10 µM [16]: 102%
- viability at 10 µM [17]: 98.2%
- viability at 10 µM [18]: 112%
- viability at 10 µM [19]: 99.8%
- viability at 10 µM [20]: 105%
- viability at 10 µM [21]: 96.1%
- viability at 10 µM [22]: 102%
- viability at 10 µM [23]: 90.1%
- viability at 10 µM [24]: 105%
- viability at 10 µM [25]: 107%
- viability at 10 µM [26]: 99.8%
- viability at 10 µM [27]: 101%
- viability at 10 µM [28]: 96.2%

Compound: CCOc1c(OC)cc2c(c1O)C(=O)NC1C2CC(O)C(O)C1O (racemic)
- viability at 10 µM [1]: 103%
- viability at 10 µM [2]: 91.2%
- viability at 10 µM [3]: 103%
- viability at 10 µM [4]: 89.2%
- viability at 10 µM [5]: 98%
- viability at 10 µM [6]: 98.6%
- viability at 10 µM [7]: 99.8%
- viability at 10 µM [8]: 112%
- viability at 10 µM [9]: 115%
- viability at 10 µM [10]: 102%
- viability at 10 µM [11]: 104%
- viability at 10 µM [12]: 102%
- viability at 10 µM [13]: 102%
- viability at 10 µM [14]: 106%
- viability at 10 µM [15]: 105%
- viability at 10 µM [16]: 101%
- viability at 10 µM [17]: 100%
- viability at 10 µM [18]: 102%
- viability at 10 µM [19]: 101%
- viability at 10 µM [20]: 110%
- viability at 10 µM [21]: 102%
- viability at 10 µM [22]: 99.5%
- viability at 10 µM [23]: 91.3%
- viability at 10 µM [24]: 109%
- viability at 10 µM [25]: 106%
- viability at 10 µM [26]: 100%
- viability at 10 µM [27]: 99.6%
- viability at 10 µM [28]: 94.9%
